Assay results published in patent US11649231B2, “Compound as mTOR inhibitor and use thereof” (MEDICINAL BIOCONVERGENCE RESEARCH CENTER, priority 2018, dated 2023).

Legend:
RagD = RagD GTP hydrolysis inhibitory activity (GTP-agarose bead pulldown assay) in SW620 cells; type: cell-based; conditions: 10 μM for 1 hour, leucine restimulation 15 min
Experimental: GTP-agarose bead pulldown assay was performed to analyze RagD bound to GTP.
After washing the cells with cold PBS, cells were obtained in GTP-binding buffer (20 mM Tris-HCl, pH 7.5, 5 mM MgCl2, 2 mM PMSF, 20 μg/ml leupeptin, 10 μg/ml aprotinin, 150 mM NaCl, 1% Triton X-100, 1× phosphatase inhibitor cocktail). The cells were sonicated for 15 seconds to lyse, and the cell lysate was centrifuged at 4° C. for 10 minutes and at 13000×g to obtain a supernatant. The obtained protein solution (contained in 500 μl of GTP-binding buffer) was treated with 100 μl of GPT-agarose bead (Sigma Aldrich, Cat no. G9768) and left at 4° C. for 30 minutes. Thereafter, the beads were washed with GTP-binding buffer, and the supernatant was recovered. The washed beads in the recovered supernatant were once again treated for 30 minutes. The beads were washed again, and the recovered supernatant was left overnight at 4° C. After washing 5 times with GTP-binding buffer to separate contaminants that may have been included, the GTP-binding protein was analyzed by performing immunoblot analysis using anti-RagD or ARF1 antibody. ARF1 was used as a negative control.

LRS and RagD = LRS and RagD (Homo sapiens (Human), UniProt Q9P2J5); experiment: Inhibition of the interaction of LRS and RagD (immunoprecipitation) in SW620 cells; type: cell-based; conditions: 10 uM for 1 hour, leucine restimulation, anti-LRS or anti-RagD precipitate
Experimental: Cells were lysed using a lysis buffer containing a protease inhibitor, and a primary antibody was added to the cell lysate for immunoprecipitation, followed by stirring at 4° C. for 2 hours and allowed to stand. A 50% protein agarose G-Sepharose slurry was added and left for an additional 4 hours. After washing three times with cold lysis buffer, the precipitate was dissolved in SDS sample buffer, separated by SDS-PAGE, and immunoblotted using anti-LRS or anti-RagD antibody.

mTORC2 [1] = biological target: T1, mTORC2 (Mus musculus (Mouse), UniProt Q9JLN9); experiment: In vivo mTORC2 activity, AKT phosphorylation in brain of C57BL/6 mice; conditions: 100 mg/kg intraperitoneal; 7-week-old C57BL/6 male mice
Experimental: (§1) The salt of the compound of the Example 1-1 was administered at a dose of 100 mg/kg (in 10% DMAC, 15% Tween 80, 75% 0.1M Na2HPO4, pH9.4), and rapamycin at a dose of 2 mg/kg (in 10% DMAC, 15% Tween 80, 75% saline).

autophagy [2] = experiment: Autophagy markers (LC3 II increase or p62 cleavage) in TSC2 CKO epilepsy animal model; type: in vivo, mouse; conditions: TSC2 CKO mice; rapamycin 3 mg/kg or Example 1-1K 10 mg/kg i.p.; 4 weeks
Experimental: (§2) Animal care was performed according to an animal protocol approved by the Animal Experiment Committee of Seoul National University. TSC2^GFAP1 CKO mice were generated as follows. TSC2^flox/flox mice were first crossed with the same GFAP-Cre mouse line. The resulting TSC2^flox/+; TSC2^flox/flox by crossing GFAP-Cre mice with other TSC2^flox/flox mice; GFAP-Cre mice were generated.
(§3) For western blot analysis, mouse cerebral neocortex and hippocampus were dissected and sonicated in cell lysis buffer (Cell Signaling, Beverly, Mass., USA). After centrifugation at 15,000 rpm at 4° C. for 1 hour. a supernatant was obtained and the protein concentration was measured by the Bradford method (Pierce, Rockford, Ill., USA). An equal amount of total protein extract was separated by SDS-PAGE and transferred to a nitrocellulose membrane. After incubation with anti-p-S6K (T389) (Cell Signaling, #9205), anti-S6K (Cell Signaling, #9202), anti-Actin (Santa Cruz Biotechnology, #sc-1616), anti-p-AKT (S473) (Cell signaling, #4060), anti-AKT (Cell signaling, #2920) anti-p62/SQSTM1 (Cell signaling, #39749) and anti-LC3A (Cell signaling, #4108) antibodies in 1% TTBBS buffer (10 mM Tris, 10% Tris (Tris-HCl, pH 7.5, 150 mM NaCl, 0.05% Tween 20), the membrane was reacted with a peroxidase-conjugated secondary antibody. Signals were detected using an improved chemiluminescent reagent (Pierce, Rockford, Ill., USA).

mTORC2 [3] = biological target: T1, mTORC2; experiment: mTORC2 activation (p-AKT S473) in TSC2 CKO epilepsy animal model; type: in vivo; conditions: TSC2 CKO mice; rapamycin 3 mg/kg or Example 1-1K 10 mg/kg i.p.; 4 weeks
Experimental: as §2, §3

B6C3H/APP/PS1 mice = experiment: Amyloid plaque removal in Alzheimer's animal model, ThS staining; type: in vivo, mouse; conditions: 5, 10 or 20 mg/kg intraperitoneal once daily for 7 days, vs vehicle
Source text: In the experiment, 7 months old male B6C3H/APP/PS1 mice were purchased from Jackson Lab (Bar Harbor, Me., USA) and used. These mouse are all dual transgenic mice expressing chimeric mouse/human amyloid precursor protein and mutant human presenilin 1, both of these are about CNS neurons. Both mutations are associated with early onset Alzheimer's.
The prepared salt (1-4K) of the compound of Example 1-1 was intraperitoneally administered at 0, 5, 10 or 20 mpk (mg/kg) per mouse, once daily for 7 days. As the solvent, 10% DMAC, 15% Tween 80, and 75% 0.1M Na2HPO4 buffer were used.
For immunohistochemical analysis, mice were anesthetized with 2% Avertin (20 μg g^−1, intraperitoneally), perfused with 0.9% saline, and perfused with ice-cold 4% paraformaldehyde. Excised brains of B6C3H/APP/PS1 mice were fixed in 4% paraformaldehyde (pH 7.4) for 16 hours. The fixed brain samples were immersed in 30% sucrose for cryoprotection and sliced to a thickness of 35 μm using a Cryostat (Microm HM 525, Thermo Scientific, Waltham, Mass., USA). To visualize Aβ plaques, sliced brain sections were stained with thioflavin S (ThS) for 7 minutes. […]
Images were taken with a Leica DM2500 fluorescence microscope. Plaque numbers were calculated from a single brain image of each mouse using the ImageJ software program.
Aβ deposition in the brain of APP/PS1 mice can be detected at 6 months of age. […]

mTORC1 [4] = experiment: mTORC1 activity inhibitory effect at 20 μM, phospho-p70 S6 Kinase Western blot in SW620 cells; conditions: leucine-free 1 h 30 min, then leucine 15 min, vs DMSO control
Experimental: In order to evaluate the inhibitory effect of the compounds according to the present invention on the activity of mTORC1, an experiment was performed in the following manner.

autophagy [5] = experiment: In vivo autophagy (LC3 II or p62 degradation) in brain of C57BL/6 mice; design: species or system mouse; conditions: 100 mg/kg intraperitoneal; 7-week-old C57BL/6 male mice
Experimental: as §1

mTORC1 [6] = experiment: mTORC1 activation (p-S6K T389) in TSC2 CKO epilepsy animal model; type: in vivo, mouse; conditions: TSC2 CKO mice; rapamycin 3 mg/kg or Example 1-1K 10 mg/kg i.p.; 4 weeks; vs control
Experimental: as §2
For western blot analysis, mouse cerebral neocortex and hippocampus were dissected and sonicated in cell lysis buffer (Cell Signaling, Beverly, Mass., USA). After centrifugation at 15,000 rpm at 4° C. for 1 hour. a supernatant was obtained and the protein concentration was measured by the Bradford method (Pierce, Rockford, Ill., USA). An equal amount of total protein extract was separated by SDS-PAGE and transferred to a nitrocellulose membrane.

mTORC1 [7] = experiment: In vivo mTORC1 inhibition, S6K phosphorylation in brain neocortex and hippocampus of C57BL/6 mice; design: species or system mouse
Experimental: as §1
On the other hand, the present inventor attempted to evaluate the mTOR. inhibitory activity by salt concentration of the compound of Example 1-1 based on the above results.

LRS and RagD, sequence (Q9P2J5 whole entry): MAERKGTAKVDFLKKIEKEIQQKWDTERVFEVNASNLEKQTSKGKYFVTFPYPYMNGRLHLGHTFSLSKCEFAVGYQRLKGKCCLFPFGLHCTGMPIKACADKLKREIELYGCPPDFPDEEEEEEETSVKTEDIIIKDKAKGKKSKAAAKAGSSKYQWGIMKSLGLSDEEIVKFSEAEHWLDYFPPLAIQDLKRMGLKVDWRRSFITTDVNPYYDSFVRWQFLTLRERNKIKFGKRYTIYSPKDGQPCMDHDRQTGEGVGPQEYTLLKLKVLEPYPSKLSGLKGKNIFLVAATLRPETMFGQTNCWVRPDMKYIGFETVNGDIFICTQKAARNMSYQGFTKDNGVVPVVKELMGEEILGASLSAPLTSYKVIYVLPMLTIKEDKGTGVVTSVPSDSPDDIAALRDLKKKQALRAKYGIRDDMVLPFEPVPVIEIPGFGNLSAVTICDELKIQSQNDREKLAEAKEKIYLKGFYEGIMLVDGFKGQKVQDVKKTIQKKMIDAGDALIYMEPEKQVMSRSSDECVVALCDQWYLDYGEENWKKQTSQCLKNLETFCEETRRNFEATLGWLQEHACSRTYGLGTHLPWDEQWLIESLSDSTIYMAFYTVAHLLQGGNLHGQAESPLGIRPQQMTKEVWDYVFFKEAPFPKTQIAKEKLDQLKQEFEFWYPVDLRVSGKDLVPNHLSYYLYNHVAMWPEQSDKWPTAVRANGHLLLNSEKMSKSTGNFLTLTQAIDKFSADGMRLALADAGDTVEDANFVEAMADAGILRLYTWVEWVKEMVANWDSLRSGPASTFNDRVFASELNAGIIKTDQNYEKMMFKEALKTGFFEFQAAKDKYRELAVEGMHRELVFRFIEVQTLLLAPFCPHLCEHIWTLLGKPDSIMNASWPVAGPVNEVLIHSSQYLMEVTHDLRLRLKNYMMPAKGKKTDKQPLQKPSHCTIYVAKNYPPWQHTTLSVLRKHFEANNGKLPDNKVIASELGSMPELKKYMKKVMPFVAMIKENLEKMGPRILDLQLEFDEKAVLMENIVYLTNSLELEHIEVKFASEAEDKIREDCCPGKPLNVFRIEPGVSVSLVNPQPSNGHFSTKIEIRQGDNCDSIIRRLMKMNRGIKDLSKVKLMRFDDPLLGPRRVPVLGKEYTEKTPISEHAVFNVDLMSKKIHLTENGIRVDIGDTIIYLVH

Row | Structure (SMILES) | GTP hydrolysis of RagD (RagD) | interaction between LRS and RagD (LRS and RagD) | autophagy (LC3 II increase or p62 cleavage) (autophagy [2]) | mTORC2 activation, p-AKT (S473) (mTORC2 [3]) | mTORC1 inhibitory effect (%) (mTORC1 [4]) | mTORC1 activation, p-S6K (T389) in cerebral cortex and hippocampus (mTORC1 [6]) | further results
1 | O=C1NC(=S)S/C1=C\c1cnn(-c2ccccc2)c1 [Example 1-1, (5Z)-5-[(1-phenylpyrazol-4-yl)methylene]-2-thioxo-thiazolidin-4-one] | inhibiting the GTP hydrolysis of RagD | directly inhibited | – | – | – | – | –
2 | O=C1[N-]C(=S)S/C1=C\c1cnn(-c2ccccc2)c1.[K+] [Example 1-1K, Potassium Salt of (5Z)-5-[(1-phenylpyrazole-4-yl)methylene]-2-thioxo-thiazolidin-4-one] | inhibiting the GTP hydrolysis of RagD | directly inhibited | induced | not affected | ≥ 85% | reduced | phosphorylation degree of AKT (mTORC2 activity) (mTORC2 [1]): not changed; amyloid plaque deposits (ThS staining) in the brain (B6C3H/APP/PS1 mice): significantly reduced; autophagy action (degradation of LC3 II or p62) (autophagy [5]): increased; phosphorylation of S6K in the brain, by dose (mTORC1 [7]; 0, 1, 2.5, 5, 10, 20 and 50 mg/kg intraperitoneal, C57BL/6 male mice): inhibited the phosphorylation of S6K in the brain of the animal in a concentration-dependent manner; phosphorylated S6K in brain neocortex and hippocampus (mTORC1 [7]; 100 mg/kg intraperitoneal, 7-week-old C57BL/6 male mice): not detected
3 | O=C1NC(=S)S/C1=C\c1ccn(-c2ccc(Cl)cc2)n1 [Example 1-55, (5Z)-5-[[1-(4-chlorophenyl)pyrazol-3-yl]methylene]-2-thioxo-thiazolidin-4-one] | – | – | – | – | 74.6 ± 6.5% | – | –
4 | O=C1NC(=O)/C(=C/c2ccn(-c3ccccc3)n2)S1 [Example 1-58, (5Z)-5-[[1-phenylpyrazol-3-yl]methylene]thiazolidine-2,4-dione] | – | – | – | – | 59.51 ± 4.35% | – | –
5 | O=C1NC(=O)/C(=C/c2ccn(-c3cccnc3)n2)S1 [Example 1-60, (5Z)-5-[[1-(3-pyridyl)pyrazol-3-yl]methylene]thiazolidine-2,4-dione] | – | – | – | – | 81.52 ± 3.79% | – | –
6 | CO[C@H]1C[C@@H]2CC[C@@H](C)[C@@](O)(O2)C(=O)C(=O)N2CCCC[C@H]2C(=O)O[C@H]([C@H](C)C[C@@H]2CC[C@@H](O)[C@H](OC)C2)CC(=O)[C@H](C)/C=C(\C)[C@@H](O)[C@@H](OC)C(=O)[C@H](C)C[C@H](C)/C=C/C=C/C=C/1C [rapamycin, reference compound] | – | – | induced | not affected | – | reduced | –
